According to patent US11572590B2, “Methods for evaluating tumor cell spheroids using 3D microfluidic cell culture device” (Dana-Farber Cancer Institute, Inc., priority 2017, dated 2023):
Read-outs that look alike come from different tables or passages of the source.

Columns and labels:
Assay in all cases: SelectScreen Kinase Profiling, single point inhibition and IC50 for off-target kinases
Format in all cases: biochemical
off-target kinases [1] = biological target: T1, off-target kinases (Homo sapiens, UniProt O94768); conditions: STK17B (DRAK2), LanthaScreen Binding
T1 sequence (O94768 1-372): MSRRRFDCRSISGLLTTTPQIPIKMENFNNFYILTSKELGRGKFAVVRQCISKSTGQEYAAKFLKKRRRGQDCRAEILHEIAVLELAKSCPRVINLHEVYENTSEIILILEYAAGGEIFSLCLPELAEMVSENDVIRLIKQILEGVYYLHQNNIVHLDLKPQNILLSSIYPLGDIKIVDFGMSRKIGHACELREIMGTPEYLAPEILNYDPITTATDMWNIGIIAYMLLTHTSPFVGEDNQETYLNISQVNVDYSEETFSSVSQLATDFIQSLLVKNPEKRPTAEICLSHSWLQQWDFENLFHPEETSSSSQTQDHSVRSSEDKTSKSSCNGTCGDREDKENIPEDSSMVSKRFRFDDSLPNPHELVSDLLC

off-target kinases [2] = biological target: T2, off-target kinases (Homo sapiens, UniProt P52564, S207E/T211E); conditions: MAP2K6 (MKK6) S207E T211E (mutant), LanthaScreen Binding
T2 sequence (P52564 1-334 S207E/T211E): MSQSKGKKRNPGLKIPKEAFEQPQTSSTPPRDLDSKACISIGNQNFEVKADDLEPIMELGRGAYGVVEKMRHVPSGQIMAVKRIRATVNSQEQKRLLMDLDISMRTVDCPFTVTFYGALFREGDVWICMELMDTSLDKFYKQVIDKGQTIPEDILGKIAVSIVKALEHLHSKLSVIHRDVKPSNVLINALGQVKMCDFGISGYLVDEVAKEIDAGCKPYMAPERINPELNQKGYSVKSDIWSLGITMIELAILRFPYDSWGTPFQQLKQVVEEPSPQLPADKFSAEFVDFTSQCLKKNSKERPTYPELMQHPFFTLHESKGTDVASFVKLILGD

off-target kinases [3] = biological target: T3, off-target kinases (Homo sapiens, UniProt Q12866); conditions: MERTK (cMER), ZLYTE, ATP Km app
T3 sequence (Q12866 21-999): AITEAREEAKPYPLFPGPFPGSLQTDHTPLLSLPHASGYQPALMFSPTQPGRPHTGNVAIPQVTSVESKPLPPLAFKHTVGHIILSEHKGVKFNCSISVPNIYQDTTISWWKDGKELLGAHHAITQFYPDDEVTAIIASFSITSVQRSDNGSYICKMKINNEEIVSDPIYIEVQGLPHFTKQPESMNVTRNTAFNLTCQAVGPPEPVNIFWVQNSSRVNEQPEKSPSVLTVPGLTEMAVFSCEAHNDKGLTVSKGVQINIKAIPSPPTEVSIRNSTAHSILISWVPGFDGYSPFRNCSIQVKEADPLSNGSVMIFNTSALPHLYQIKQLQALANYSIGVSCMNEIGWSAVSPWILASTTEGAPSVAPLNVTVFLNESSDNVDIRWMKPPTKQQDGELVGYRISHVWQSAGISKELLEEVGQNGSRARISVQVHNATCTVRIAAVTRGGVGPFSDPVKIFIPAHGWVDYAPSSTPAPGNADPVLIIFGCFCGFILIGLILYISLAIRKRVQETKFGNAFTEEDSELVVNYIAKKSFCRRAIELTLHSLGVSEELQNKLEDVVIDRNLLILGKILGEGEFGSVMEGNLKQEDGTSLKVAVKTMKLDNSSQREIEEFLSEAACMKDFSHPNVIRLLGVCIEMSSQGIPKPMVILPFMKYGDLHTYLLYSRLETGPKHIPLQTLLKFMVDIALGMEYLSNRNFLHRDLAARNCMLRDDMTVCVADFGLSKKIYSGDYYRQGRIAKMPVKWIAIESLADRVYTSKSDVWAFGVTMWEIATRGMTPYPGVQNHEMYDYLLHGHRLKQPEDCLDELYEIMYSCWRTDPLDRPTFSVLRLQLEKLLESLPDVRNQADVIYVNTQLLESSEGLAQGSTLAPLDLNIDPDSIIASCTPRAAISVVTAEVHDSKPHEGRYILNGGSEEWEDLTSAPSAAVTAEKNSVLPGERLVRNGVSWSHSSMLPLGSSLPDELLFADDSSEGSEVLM

Q: Which results are given for `N#Cc1cc(-c2ncnc(Nc3ccc(N4CCN(C5COC5)CC4)cc3)n2)ccc1OC1CCOCC1` [Compound 1, 5-(4-((4-(4-(oxetan-3-yl)piperazin-1-yl)phenyl)amino)-1,3,5-triazin-2-yl)-2-((tetrahydro-2H-pyran-4-yl)oxy)benzonitrile]?
A: inhibition (off-target kinases [1]; read-out: % Inhibition 1): 94%; inhibition (off-target kinases [1]; read-out: % Inhibition 2): 84%; inhibition (off-target kinases [1]; read-out: % Inhibition Avg): 89%; inhibition (off-target kinases [2]; read-out: % Inhibition 1): 5%; inhibition (off-target kinases [2]; read-out: % Inhibition 2): 5%; inhibition (off-target kinases [2]; read-out: % Inhibition Avg): 5%; inhibition (off-target kinases [3]; read-out: % Inhibition 1): 27%; inhibition (off-target kinases [3]; read-out: % Inhibition 2): 22%; inhibition (off-target kinases [3]; read-out: % Inhibition Avg): 24%
